Test results reported in patent US8710021B2, “Inhibition of HRP-3 using modified oligonucleotides” (Bionucleon S.r.l., priority 2008, dated 2014).
“Also recorded” adds a separate entry of the source.

Key:
[1] = Acute toxicity in vivo in CD-1 female mice; settings: 3, 10 and 30 mg/kg i.v. or i.p.
Protocol: We have evaluated in vivo the acute toxicity of BN210. 30 CD-1 female mice (Charles River Italia s.r.l., Via Indipendenza, 11-23885 CALCO (Lecco)), weighing 21.8-22.9 g, were divided in 6 groups, each of 5 animals, and housed in Makrolon cages (type III) at a room temperature of 22±3° C. and at a relative humidity of 55±15%. Air changes were 180-220/hour. Three doses of BN210, dissolved in phosphate buffered saline, were tested: 3, 10 and 30 mg/kg given intravenously (i.v., via the tail vain) or intraperitoneally (i.p.). BN210 concentrations in the formulates were 0.155, 0.517 and 1.551 mg/ml, respectively. Mice were observed daily, twice/day, for the appearance of toxicity signs during the 14 days following drug administration. The parameters commonly checked in the Irvin test were taken into consideration. […] After 14 days of observation, all mice were sacrificed and dissected for gross pathology examination. Any sign or pathological alterations were the subject of close scrutiny during the necropsy.

soluble HRP-3 = soluble HRP-3 (Homo sapiens, UniProt Q9Y3E1); test: In vitro anti-angiogenic activity (data not shown); assay type: cell-based
Sequence of soluble HRP-3 (Q9Y3E1 whole entry): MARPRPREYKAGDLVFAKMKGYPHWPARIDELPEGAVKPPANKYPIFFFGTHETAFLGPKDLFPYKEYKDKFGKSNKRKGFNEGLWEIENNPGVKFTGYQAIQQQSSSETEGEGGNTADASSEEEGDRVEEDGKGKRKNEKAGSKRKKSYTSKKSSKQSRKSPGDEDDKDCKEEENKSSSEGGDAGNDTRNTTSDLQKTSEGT

GI-LI-N cells = settings: 48 h
HRP-3 [2] = target: T1, HRP-3 (Homo sapiens, UniProt Q9Y3E1); test: HRP-3 induced sprouting of HUVEC blocked by single strand oligonucleotides; assay type: cell-based; settings: recombinant HRP-3 plus synthetic oligo
T1 construct: The HRP-3 coding region was cloned into the pET30 vector using EcoRI and NdeI as restriction sites; made in house; host or cells: E. coli BL21
T1 sequence (Q9Y3E1 whole entry): as above
Source text: We tried to twice block the protein effect of human endothelial cells sprouting with a modified single strand oligonucleotides. In samples with recombinant protein, and synthetic oligos, SEQ ID NO. 16, 17, and 18 the number of sprouted spheroids was reduced as compared to samples with recombinant protein (FIG. 19).

[3] = system: GI-LI-N neuroblastoma xenograft; test: Orthotopic neuroblastoma (GI-LI-N) xenograft survival in nude mice; assay type: in vivo; settings: VCR 1 mg/kg i.v. once a week for 5 weeks
Protocol: Mice were housed under specific pathogen-free conditions. The in vivo experiment was performed using five week old female athymic (Nude-nu) mice. Mice were anaesthetized with a mixture of xylazine (10 mg/kg) and ketamine (90 mg/kg) (Imalgene 1000, Merial Italia S.p.A., Milan, Italy), subjected to laparatomy, and orthotopically injected with the neuroblastoma (NB) cell line, GI-LI-N (1.5×10^6 cells in 10 μL of saline solution/mouse), in the capsule of the left adrenal gland, as previously reported (Pastorino F. et al., Cancer Res 63, 2003; Pastorino F. et al., Clin Cancer Res 2008). No mortality was observed following tumour cells implantation. NB tumours were allowed to grow from the injected cells for 22 days, then animals were randomly divided in 3 groups. One group was treated i.v., once a week for 5 weeks, with 1 mg/kg of vincristine (VCR, 5 administration in total). A second group of animals was treated with a combination of VCR (i.v. injection of 1 mg/kg, once a week for 5 weeks, 5 administration in total) and BN210 (i.p. injection of 7 mg/kg, 5 days/week, 20 administrations in total). Negative control mice were treated with HEPES-buffered saline. The significance of the differences between experimental groups (n=8 mice/group) in the survival experiments was determined by Kaplan-Meier curves by the use of Chi square log-rank test. […]

HUVEC cells [4] = test: HUVEC sprouting test; assay type: cell-based, human
Protocol: (§1) While no effects on the proliferation on BAEC and HUVEC cells were found, HRP-3 is able to induce HUVEC sprouting after 24 hours of stimulation. As shown in FIGS. 3 and 4 the HRP-3 can induce sprouting in HUVEC cells in a dose dependent manner. In FIG. 4 we have shown the negative control and the positive control with VEGF at 60 ng/ml. […] To be sure of ours results, experiments have been made in blind too.
Furthermore to confirm VEGF-independent angiogenic activity we performed another sprouting test with Avastin, anti-VEGF antibody in presence of VEGF and our protein.

HRP-3 [5] = target: T1, HRP-3; test: 3T3 migration in vitro assay: prevention of HRP-3 function by DNA duplexes; assay type: cell-based, mouse
Protocol: All the four DNA duplexes were tested in our 3T3 migration in vitro assay to see if they were able to prevent HRP-3 function by binding its PWWP domain (FIG. 13). […] The third column on the left is the negative control.

NIH 3T3 fibroblasts = test: 3T3 migration assay in presence of increasing amounts of HRP-3; assay type: cell-based, mouse; settings: 30 ng/mL HRP-3, 24 h
Protocol: (§2) In analogy with the reported HDGF activity on NIH 3T3 fibroblast, we decided to test the HRP-3 activity on these cells to develop a test able to report any interfering activity by a ligand able to bind the PWWP domain. Migration and proliferation assay of 3T3 cells in presence of increasing amounts of the protein were performed. These assays allow the definition of a strong anti-migratory effect of the HRP-3 protein, which at 30 ng/mL is able to prevent 50% of the 3T3 migration induced at 24 h by 5% FBS. This test was validated and is currently well reproducible, FIG. 2.

3T3 cells [6] = test: 3T3 proliferation assay; assay type: cell-based, mouse
Protocol: as §2

3T3 cells [7] = test: 3T3 anchorage independent growth; assay type: cell-based, mouse
BAEC = test: Proliferation of endothelial primary cells (BAEC); assay type: cell-based
Protocol: as §1

HUVEC [8] = test: Proliferation of endothelial primary cells (HUVEC); assay type: cell-based, human
Protocol: as §1

HUVEC [9] = test: Tube formation assay in Matrigel; assay type: cell-based, human; settings: after 24 hours, preliminary result
HUVEC cells [10] = test: mRNA expression in HUVEC by Real Time PCR; assay type: cell-based, human
Source text: To understand the molecular basis of this stimulation, we studied mRNA expression of HRP-3 in HUVEC cell line by Real Time PCR. […] To understand if VEGF or VEGFR-2 was involved with the HRP-3 induced mechanism, we stimulated HUVEC cells with our HRP-3 and investigated mRNA levels of VEGF, VEGFR-2, HRP-3 and HDGF. The expression of those genes is not changed by HRP-3, FIGS. 5 and 6.

HUVEC [11] = test: HUVEC migration assay in presence of increasing amounts of HRP-3; assay type: cell-based, human; settings: 100 ng/ml HRP-3, 5 and 16 h
Protocol: Migration assay of HUVEC in presence of increasing amounts of the protein was performed (FIG. 9). These assay allows the definition of a anti-migratory effect of the protein on human endothelial cells in a dose-dependent manner, which at 100 ng/ml is able to prevent about 80% of the migration induced at 5 and 16 h by 5% FBS.

[12] = system: SH-SY5 neuroblastoma cells; test: Proliferation assay of SH-SY5 cells; assay type: cell-based, human; settings: 100 ng/mL HRP-3, 24 and 48 h
Protocol: Angiogenesis plays a key role during neural differentiation, exerting a trophic activity on both neurons and glia. A variety of angiogenic factors have been identified so far to play an important role in the induction of angiogenesis in NBs, including vascular endothelial growth factor (VEGF). Proliferation assay of SH-SY5 and NCS-34 cells in presence of increasing amounts of the protein were performed. These assays allow the definition of a anti-proliferatory effect of the protein only on SHSY, which at 100 ng/mL is able to prevent 25% of the SH-SY5 proliferation induced at 24 and 48 h by 5% FBS.

With “5′-PEG (40 KDa)-(NH)-T*AC AACACCCACAAAAAAUTTGTGGGTGTT GTiA-3' (BTACAACACCCACAAAAAAUTTGTGGGTGTTGTA; 5'-PEG 40 kDa amino linker, 3' inverted nucleotide, hairpin, further chemistry not given here) [BN210]” the “clinical or behavioural signs of toxicity” value ([1]; 14 days observation) was “no signs of clinical or behavioural alterations”, the “gross pathology at necropsy” value ([1]; after 14 days) was “No macroscopic signs or pathological changes” and the “anti-angiogenic activity in vitro” value (soluble HRP-3) was “anti-angiogenic activity”. For the same compound, the “effect of addition on vincristine treatment” value (GI-LI-N cells; 250 nM BN210 with vincristine 0.15 to 5 nM) was “did not enhance or inhibit”.
With “5′-TACAACACCCACAAAAAATTTGTGGGTGTTGTA-3' (TACAACACCCACAAAAAATTTGTGGGTGTTGTA; DNA, backbone and methylation of C not given here) [SEQ ID NO. 16]” the “number of sprouted HUVEC spheroids versus recombinant protein alone” value (HRP-3 [2]) was “can block; also recorded: reduced”.
With “5′-TAC AAC ACC CAC AAA-[CH2CH2O]5-TTT GTG GGT GTT GTA-[CH2CH2O]5H-3' (TACAACACCCACAAABTTTGTGGGTGTTGTAB; PEG5 spacers, chemistry not fully specified) [SEQ ID NO. 18]” the “number of sprouted HUVEC spheroids versus recombinant protein alone” value (HRP-3 [2]) was “reduced”.
For “5′-UACAACACCCACAAAAAAUUUGUGGGUGUUGUA-3' (2'-OMe) (UACAACACCCACAAAAAAUUUGUGGGUGUUGUA; all 2'-O-methyl, backbone not given here) [SEQ ID NO. 17]”, the “number of sprouted HUVEC spheroids versus recombinant protein alone” value (HRP-3 [2]) was “reduced”.
With `CC[C@]1(O)C[C@H]2CN(CCc3c([nH]c4ccccc34)[C@@](C(=O)OC)(c3cc4c(cc3OC)N(C=O)[C@H]3[C@@](O)(C(=O)OC)[C@H](OC(C)=O)[C@]5(CC)C=CCN6CC[C@]43[C@@H]65)C2)C1` [vincristine, reference compound] the “life span compared to negative control mice” value [3] was “did not show any increase of their life span” and the “concentration inhibiting proliferation of GI-LI-N cells” value (GI-LI-N cells; MTT) was 2.5 to 5 nM.
For Avastin: anti-VEGF antibody, the “effect on VEGF-mediated HUVEC sprouting” value (HUVEC cells [4]; in presence of VEGF) was “blocks HUVEC sprouting VEGF-mediated”.
In the case of “Duplex 2: derived DNA double strand with base changes versus Duplex 1, to test importance of sequence for binding (chain 1 TACAACATTCACAAA; chain 2 TTTGTGAATGTTGTA; chain 1: DNA, backbone and methylation of C not given here; chain 2: DNA, backbone not given here)”, the “activity in abolishing the anti-migratory effect of HRP-3 on 3T3 cells” value (“activity … on 3T3 cells” for short) (HRP-3 [5]) is reported as “modest activity”.
With “Duplex 3: derived DNA double strand designed to test different molecular shapes (chain 1 TACAACAAACCCACAAA; chain 2 TTTGTGGGTGTTGTA; chain 1: DNA, backbone and methylation of C not given here; chain 2: DNA, backbone not given here)” the “activity … on 3T3 cells” value (HRP-3 [5]) was “no activity”.
With “Duplex 4: derived DNA double strand with base changes versus Duplex 1, to test importance of sequence for binding (chain 1 CACACACACACACAC; chain 2 GTGTGTGTGTGTGTG; chain 1: DNA, backbone and methylation of C not given here; chain 2: DNA, backbone not given here)” the “activity … on 3T3 cells” value (HRP-3 [5]) was “no activity”.
In the case of “HRP-3: recombinant HDGF Related Protein 3 with PWWP domain, cDNA from human cells, produced in E. Coli”, the “prevention of 3T3 migration induced by 5% FBS” value (NIH 3T3 fibroblasts) is reported as 50%, the “concentration that blocks 3T3 proliferation” value (3T3 cells [6]) is reported as 0.1 ng/mL and the “concentration that blocks 3T3 anchorage independent growth” value (3T3 cells [7]) is reported as 0.1 ng/mL. The “effect on proliferation of BAEC” value (BAEC) was “no effects”, the “effect on proliferation of HUVEC” value (HUVEC [8]) was “no effects” and the “concentration stimulating sprouting on HUVEC cells” value (HUVEC cells [4]; 24 hours of stimulation) was “above 100 ng/ml”. The “vessel-like network of HUVEC in tube formation assay” value (HUVEC [9]) was “able to maintain vessel-like network of HUVEC”, the “mRNA levels of VEGF, VEGFR-2, HRP-3 and HDGF after HRP-3 stimulation” value (HUVEC cells [10]; HUVEC stimulated with HRP-3) was “not changed” and the “prevention of HUVEC migration induced by 5% FBS” value (HUVEC [11]) was “about 80%”. For the same compound, the “prevention of SH-SY5 proliferation induced by 5% FBS” value [12] was 25%.
For VEGF, the “HRP-3 mRNA levels after VEGF treatment” value (HUVEC cells [10]; HUVEC treated with 60 ng/ml VEGF, versus negative control) was “no significant difference”.
